Measurements: patent US11633393B2, “Tubulin binding compounds and therapeutic use thereof” (BeyondSpring Pharmaceuticals, Inc., priority 2017, dated 2023)

Test system: bovine brain tubulin
Experiment: Microtubule pelleting assay
Type: biochemical
Details: 100 μM compound, microtubules 2 mg/mL, 30 min at 37° C.
Procedure: A microtubule pelleting assay is used to test in vitro the direct effect of the tubulin binding compounds described herein such as the compounds listed in Tables 1, 2, and 3. […] Freshly polymerised/depolymerised bovine brain tubulin is supplemented with 34% Glycerol and 1 mM GTP and adjusted to a concentration of 4 mg/mL. Polymerization into microtubule is achieved by incubating the tubulin at 37° C. for 30 min.
To assess the effect of the compounds tested, a final concentration of 100 μM is added to the warm microtubules diluted at 2 mg/mL and after a 30 min incubation at 37° C., the reaction mixture is added on top of a glycerol cushion. After high speed centrifugation at 80,000 rpm for 15 min, the microtubule pellet fractions are separated from the supernatant fractions and analyzed by SDS-PAGE. In the presence of the 3 MDAs, the tubulin band is observed in the pellet fractions, which indicates the […] effect of these compounds. […] The test compounds generally show destabilizing effect on microtubules.

CC(=O)O[C@H]1C(=O)[C@@]2(C)[C@H]([C@H](OC(=O)c3ccccc3)[C@]3(O)C[C@H](OC(=O)[C@H](O)[C@@H](NC(=O)c4ccccc4)c4ccccc4)C(C)=C1C3(C)C)[C@]1(OC(C)=O)CO[C@@H]1C[C@@H]2O [taxol]
effect on microtubules (tubulin in pellet vs supernatant fractions, SDS-PAGE): increases the amount of tubulin observed in the pellet fraction
